From article PMC6021032, “Antimycobacterial activity of nitrogen heterocycles derivatives: 7-(pyridine-4-yl)-indolizine derivatives. Part VII^8–12” (Journal of Enzyme Inhibition and Medicinal Chemistry, 2017)
In brackets after ≈: the same amount, converted by molar mass. Like-named read-outs stand apart in the source and are kept apart here.

Experiments:
Experiment in all cases: microbe, parasite or virus in culture
Format in all cases: cell-based, Mycobacterium tuberculosis
[1] = tested on: isoniazid resistant strain INH-R1
[2] = tested on: isoniazid resistant strain INH-R2
[3] = tested on: rifampicin resistant strain RIF-R1
[4] = tested on: rifampicin resistant strain RIF-R2
[5] = tested on: fluoroquinolone resistant strain FQ-R1
[6] = Mycobacterium tuberculosis, INHR1
[7] = Mycobacterium tuberculosis, INHR2
[8] = Mycobacterium tuberculosis, RIFR1, read-out: IC50
[9] = Mycobacterium tuberculosis, RIFR1, read-out: IC90
[10] = Mycobacterium tuberculosis, RIFR1, read-out: MIC
[11] = Mycobacterium tuberculosis, RIFR2, read-out: IC50
[12] = Mycobacterium tuberculosis, RIFR2, read-out: IC90
[13] = Mycobacterium tuberculosis, RIFR2, read-out: MIC
[14] = Mycobacterium tuberculosis, FQR1, read-out: IC50
[15] = Mycobacterium tuberculosis, FQR1, read-out: IC90
[16] = Mycobacterium tuberculosis, FQR1, read-out: MIC
[17] = Mycobacterium tuberculosis, RIFR1
[18] = Mycobacterium tuberculosis, RIFR2
[19] = Mycobacterium tuberculosis, FQR1

| Compound | IC50 [1, 6] | IC90 [1, 6] | MIC [1, 6] | IC50 [2, 7] | IC90 [2, 7] | MIC [2, 7] | IC50 [3, 8] | IC90 [3, 9] | MIC [3, 10] | IC50 [4, 11] | IC90 [4, 12] | MIC [4, 13] | IC50 [5, 14] | IC90 [5, 15] | MIC [5, 16] | other results |
| --- | --- | --- | --- | --- | --- | --- | --- | --- | --- | --- | --- | --- | --- | --- | --- | --- |
| 4-[3-(4-Chlorophenyl)-1-(ethoxycarbonyl)indolizine-7-yl)-1-(2-(4-methoxyphenyl)-2-oxoethyl)pyridine-1-ium bromide [Compound 6c] | – | – | – | – | – | – | – | – | – | – | – | – | – | – | – | MIC ([1]; INH-R1): 14 µM; IC50 ([1]; INH-R1, read-out: IC50): 6.9 µM; IC90 ([1]; INH-R1, read-out: IC90): 14 µM; MIC ([2]; INH-R2): 16 µM; IC50 ([2]; INH-R2, read-out: IC50): 6.2 µM; IC90 ([2]; INH-R2, read-out: IC90): 19 µM; IC50 ([3]; read-out: IC50): 6.5 µM; IC90 ([3]; read-out: IC90): 10 µM; MIC ([3]; read-out: MIC): 10 µM; IC90 ([4]; read-out: IC90): 12 µM; MIC ([4]; read-out: MIC): 13 µM; IC50 ([5]; read-out: IC50): 8 µM; IC90 ([5]; read-out: IC90): 16 µM; MIC ([5]; read-out: MIC): 16 µM |
| C[C@H]1COc2c(N3CCN(C)CC3)c(F)cc3c(=O)c(C(=O)O)cn1c23 [Levofloxacin, levofloxacin, reference compound] | 1.9 µM | 3 µM | 2.9 µM (≈ 1.05 µg/mL) | 2.4 µM | 4.3 µM | 3.5 µM (≈ 1.26 µg/mL) | 1.6 µM | 2.6 µM | 2.7 µM (≈ 0.976 µg/mL) | 1.7 µM | 3 µM | 2.9 µM (≈ 1.05 µg/mL) | 49 µM | 110 µM | 110 µM (≈ 39.8 µg/mL) | – |
| CCOC(=O)c1cc(C(=O)c2ccc(Br)cc2)n2ccc(-c3cc[n+](CC(=O)c4cccc(OC)c4)cc3)cc12 [Compound 6h, 4-(3-(4-Bromobenzoyl)-1-(ethoxycarbonyl)indolizine-7-yl)-1-(2-(3-methoxyphenyl)-2-oxoethyl)pyridin-1-ium] | 18 µM | > 50 µM | > 50 µM | 16 µM | 43 µM | > 50 µM | 13 µM | 26 µM | 24 µM | 15 µM | > 50 µM | > 50 µM | 26 µM | > 50 µM | > 50 µM | – |
| CCOC(=O)c1cc(C(=O)c2ccccc2)n2ccc(-c3cc[n+](CC(=O)c4ccc(C)cc4)cc3)cc12.[Br-] [Compound 6a, 4-(3-Benzoyl-1-(ethoxycarbonyl)indolizine-7-yl)-1-(2-oxo-2-(p-tolyl)ethyl)pyridin-1-ium bromide] | 13 µM | 35 µM | 33 µM | 12 µM | 22 µM | 19 µM | 8.3 µM | 13 µM | 14 µM | 12 µM | 29 µM | 31 µM | 15 µM | 32 µM | 31 µM | – |
| CCOC(=O)c1cc(C(=O)c2ccc(Cl)cc2)n2ccc(-c3cc[n+](CC(=O)c4cccc(OC)c4)cc3)cc12 [Compound 6d, 4-(3-(4-Chlorobenzoyl)-1-(ethoxycarbonyl)indolizine-7-yl)-1-(2-(3-methoxyphenyl)-2-oxoethyl)pyridin-1-ium] | 14 µM | 36 µM | 28 µM | 15 µM | 35 µM | 30 µM | 12 µM | 24 µM | 22 µM | 12 µM | 14 µM | 16 µM | 21 µM | 32 µM | 32 µM | – |
| NNC(=O)c1ccncc1 [Isoniazid, reference compound] | > 200 µM | > 200 µM | > 200 µM | > 200 µM | > 200 µM | > 200 µM | 0.063 µM | 0.094 µM | 0.092 µM (≈ 0.0126 µg/mL) | 0.27 µM | 0.3 µM | 0.31 µM (≈ 0.0425 µg/mL) | 0.13 µM | 0.15 µM | 0.16 µM (≈ 0.0219 µg/mL) | – |
| CO[C@H]1/C=C/O[C@@]2(C)Oc3c(C)c(O)c4c(O)c(c(/C=N/N5CCN(C)CC5)c(O)c4c3C2=O)NC(=O)/C(C)=C\C=C\[C@H](C)[C@H](O)[C@@H](C)[C@@H](O)[C@@H](C)[C@H](OC(C)=O)[C@@H]1C [Rifampicin, reference compound] | 0.012 µM | 0.031 µM | 0.022 µM (≈ 0.0181 µg/mL) | 0.007 µM | 0.016 µM | 0.013 µM (≈ 0.0107 µg/mL) | – | – | – | – | – | – | – | – | – | IC50 [3, 17]: 1.1 µM; IC90 [3, 17]: 3.8 µM; MIC [3, 17]: 5.3 µM (≈ 4.36 µg/mL); IC50 [4, 18]: > 50 µM; IC90 [4, 18]: > 50 µM; MIC [4, 18]: > 50 µM; IC50 [5, 19]: 0.013 µM; IC90 [5, 19]: 0.033 µM; MIC [5, 19]: 0.024 µM (≈ 0.0198 µg/mL) |
| CCOC(=O)c1cc(C(=O)c2ccc(Cl)cc2)n2ccc(-c3cc[n+](CC(=O)c4ccc(C)cc4)cc3)cc12 [Compound 6i] | 13 µM | 23 µM | 22 µM | 9.8 µM | 20 µM | 20 µM | 7.7 µM | 15 µM | 15 µM | 12 µM | 22 µM | 22 µM | 11 µM | 28 µM | 27 µM | – |
